Experimental data taken from patent US20150150888A1, “COMBINATION OF SELECTIVE PROGESTERONE-RECEPTOR MODULATORS AND NONSTEROIDAL ANTI-INFLAMMATORY DRUGS” (LABORATOIRE HRA-PHARMA, priority 2012, published 2015).

Experiments:
[1] = test system: LH-induced ovarian follicle rupture; experiment: ovarian hyperstimulation (superovulation) model: counting the oocytes released into the oviducts; assay type: in vivo, CD1 mice; conditions: for number of oocytes released into the oviducts compared with the control group: oocytes counted 18 h after hCG
Procedure: The effect of the combined administration of ulipristal acetate (UPA) and of a non-steroidal anti-inflammatory agent (NSAID) on LH-induced ovarian follicle rupture was evaluated in an animal model of ovarian hyperstimulation (superovulation model).
(§1) 24 to 28-day-old immature CD1 mice were subjected to ovarian hyperstimulation by injection of 5 IU of PMSG (pregnant mare's serum gonadotropin) followed, 48 h later, by 5 IU of hCG (chorionic gonadotropin hormone) intraperitoneally. The mice were divided up into several groups, each of 10 mice. 8 hours after the hCG injection, the mice were administered, intraperitoneally, with either the compound(s) to be tested, or the placebo (vehicle). The mice were euthanized 18 hours after the hCG injection. The effect of the compound(s) on follicular rupture and therefore ovulation was determined by counting the oocytes released into the oviducts. In experiment series No. 2, a morphological and histological examination of the ovaries was carried out so as to evaluate the presence of unruptured follicles and/or of yellow bodies in the ovaries of each group of animals.
Series 1: • Group 1: placebo • Group 2: 3 mg/kg of piroxicam • Group 3: 10 mg/kg of piroxicam • Group 4: 30 mg/kg of piroxicam.
Series 2: • Group 1: placebo • Group 2: 40 mg/kg of ulipristal acetate • Group 3: 40 mg/kg of ulipristal acetate+3 mg/kg of piroxicam • Group 4: 40 mg/kg of ulipristal acetate+30 mg/kg of piroxicam. […]

[2] = test system: LH-induced ovarian follicle rupture; experiment: morphological and histological examination of the ovaries (unruptured follicles, yellow bodies) in the superovulation model; assay type: in vivo, CD1 mice; conditions: 40 mg/kg UPA in the absence of piroxicam, compared with groups 3 and 4
Procedure: as §1

follicular rupture = conditions: administration after the LH peak; cited from earlier work
[3] = single dose of 30 mg within 72 or 120 hours after sexual intercourse; cited from earlier work

CN1C(C(=O)Nc2ccccn2)=C(O)c2ccccc2S1(=O)=O [piroxicam]
number of oocytes released into the oviducts compared with the control group ([1]; piroxicam 3 mg/kg i.p. 8 h after hCG): does not significantly reduce
number of oocytes released into the oviducts compared with the control group ([1]; piroxicam 10 mg/kg i.p. 8 h after hCG): does not significantly reduce
number of oocytes released into the oviducts compared with the control group ([1]; piroxicam 30 mg/kg i.p. 8 h after hCG): significantly reduce

CC(C)Cc1ccc(C(C)C(=O)O)cc1 (stereo not drawn) [ibuprofen]
effect on ovulation compared with the control group ([1]; ibuprofen alone, dose between 15 mg and 150 mg (per kg)): no significant effect

CC(=O)O[C@]1(C(C)=O)CCC2C3CCC4=CC(=O)CCC4=C3[C@@H](c3ccc(N(C)C)cc3)C[C@@]21C (stereo partly drawn) [ulipristal acetate, 17α-acetoxy-11β-[4-N,N-dimethylaminophenyl)-19-norpregna-4,9-diene-3,20-dione]
mean number of oocytes released compared with the control group ([1]; 40 mg/kg UPA 8 h after hCG injection, piroxicam series 2): approximately −50%
number of oocytes released compared with the control group ([1]; group 2: 40 mg/kg ulipristal acetate, ibuprofen series 2): significant decrease
yellow bodies (corpus luteum) in histological sections [2]: more numerous
inhibition of follicular rupture during the 5 days following administration, cases (follicular rupture): 8.3%
prevention of unwanted pregnancy after unprotected or poorly protected sexual intercourse [3]: safe and effective
